In patent US20170007615A1, “Antibacterial Compounds” (priority 2014, published 2017) one finds MIC data, which are given here for 22 molecules.

Converted amounts (≈) assume the structure as drawn.

The test system of one assay is S. aureus (ATCC 29213). Put plainly: Antibacterial activity (MIC), Gram-positive type strain. The format is cell-based, Staphylococcus aureus. Conditions: Staphylococcus aureus, ATCC29213; Table 13.
The subject of assay [1] is N. gonorrheae (ATCC 49226). Put plainly: Antibacterial activity (MIC), Gram-negative type strain. Format: cell-based, Neisseria gonorrhoeae. The following applies: Neisseria gonorrhoeae, ATCC49226; Table 13.
The subject of assay [2] is H. influenzae (ATCC 49247). The description is as above. The format is cell-based, Haemophilus influenzae. The following applies: Haemophilus influenzae, ATCC49247; Table 13.
A further assay deals with E. faecalis (ATCC 29212). Briefly: Antibacterial activity (MIC), Gram-positive type strain. Format: cell-based, Enteroccocus faecalis. Conditions: Enterococcus faecalis, ATCC29212; Table 13.

In the case of `CCNC(=O)Nc1nc2cc(-c3cnc(NS(=O)(=O)C4CC4)nc3)cc(-c3ccccn3)c2s1` [Compound A-34, N-(5-(2-(3-ethylureido)-7-(pyridin-2-yl)benzo[d]thiazol-5-yl)pyrimidin-2-yl)cyclopropanesulfonamide], the MIC with S. aureus (ATCC 29213) was determined as 0.25 µg/mL (≈ 0.504 µM); in assay [1], 0.015 µg/mL (≈ 0.0303 µM); in assay [2] it was 0.12 µg/mL (≈ 0.242 µM); in the assay with E. faecalis (ATCC 29212) it was 0.015 µg/mL (≈ 0.0303 µM).
Regarding `CCNC(=O)Nc1nc2cc(-c3cnc(NS(=O)(=O)C4CCCC4)nc3)cc(-c3ccccn3)c2s1` [Compound A-35, N-(5-(2-(3-ethylureido)-7-(pyridin-2-yl)benzo[d]thiazol-5-yl)pyrimidin-2-yl)cyclopentanesulfonamide], the MIC was at most 0.008 µg/mL against S. aureus (ATCC 29213), at most 0.008 µg/mL in assay [1], 0.03 µg/mL (≈ 0.0573 µM) in assay [2] and at most 0.008 µg/mL in the assay on E. faecalis (ATCC 29212).
Consider `CCNC(=O)Nc1nc2cc(-c3cnc(NS(=O)(=O)CC)nc3)cc(-c3ccccn3)c2s1` [Compound A-36, N-(5-(2-(3-ethylureido)-7-(pyridin-2-yl)benzo[d]thiazol-5-yl)pyrimidin-2-yl)ethanesulfonamide], for which the MIC against S. aureus (ATCC 29213) is 0.25 µg/mL (≈ 0.517 µM); in assay [1], at most 0.008 µg/mL; in assay [2], 0.03 µg/mL (≈ 0.062 µM); in the assay on E. faecalis (ATCC 29212) it was at most 0.008 µg/mL.
Take `CCNC(=O)Nc1nc2cc(-c3cnc(NS(=O)(=O)NCC)nc3)cc(-c3ccccn3)c2s1` [Compound A-37, 1-ethyl-3-[5-[2-(ethylsulfamoylamino)pyrimidin-5-yl]-7-(2-pyridyl)-1,3-benzothiazol-2-yl]urea]: the MIC was found to be 0.25 µg/mL (≈ 0.501 µM) against S. aureus (ATCC 29213), 0.03 µg/mL (≈ 0.0602 µM) in assay [1], 0.12 µg/mL (≈ 0.241 µM) in assay [2] and 0.015 µg/mL (≈ 0.0301 µM) in the assay with E. faecalis (ATCC 29212).
Take `CCNC(=O)Nc1nc2cc(-c3cnc(NS(=O)(=O)N(C)C)nc3)cc(-c3ccc(C)cn3)c2s1` [Compound A-38, 1-[5-[2-(dimethylsulfamoylamino)pyrimidin-5-yl]-7-(5-methyl-2-pyridyl)-1,3-benzothiazol-2-yl]-3-ethyl urea]: the MIC in the assay with S. aureus (ATCC 29213) was 0.015 µg/mL (≈ 0.0293 µM); in assay [1], at most 0.008 µg/mL; in assay [2], 0.03 µg/mL (≈ 0.0585 µM); against E. faecalis (ATCC 29212), at most 0.008 µg/mL.
As to `CCNC(=O)Nc1nc2cc(-c3cnc(NS(=O)(=O)NCC)nc3)cc(-c3ccc(C)cn3)c2s1` [Compound A-39, 1-ethyl-3-[5-[2-(ethylsulfamoylamino)pyrimidin-5-yl]-7-(5-methyl-2-pyridyl)-1,3-benzothiazol-2-yl]urea], the MIC was 0.015 µg/mL (≈ 0.0293 µM) with S. aureus (ATCC 29213), 0.015 µg/mL (≈ 0.0293 µM) in assay [1], 0.03 µg/mL (≈ 0.0585 µM) in assay [2] and at most 0.008 µg/mL in the assay with E. faecalis (ATCC 29212).
On to `CCNC(=O)Nc1nc2cc(-c3cnc(NS(=O)(=O)C4CC4)nc3)cc(-c3ccc(C)cn3)c2s1` [Compound A-40, N-(5-(2-(3-ethylureido)-7-(5-methylpyridin-2-yl)benzo[d]thiazol-5-yl)pyrimidin-2-yl)cyclopropanesulfonamide], for which the MIC is 0.015 µg/mL (≈ 0.0294 µM) in the assay with S. aureus (ATCC 29213), at most 0.008 µg/mL in assay [1], 0.015 µg/mL (≈ 0.0294 µM) in assay [2] and at most 0.008 µg/mL with E. faecalis (ATCC 29212).
With `CCNC(=O)Nc1nc2cc(-c3cnc(NS(=O)(=O)NC)nc3)cc(-c3ccccn3)c2s1` [Compound A-41, 1-ethyl-3-[5-[2-(methylsulfamoylamino)pyrimidin-5-yl]-7-(2-pyridyl)-1,3-benzothiazol-2-yl]urea], the MIC in the assay with S. aureus (ATCC 29213) was 0.5 µg/mL (≈ 1.03 µM); in assay [1], 0.015 µg/mL (≈ 0.031 µM); in assay [2], 0.06 µg/mL (≈ 0.124 µM); with E. faecalis (ATCC 29212), at most 0.008 µg/mL.
`CCNC(=O)Nc1nc2cc(-c3cnc(NS(=O)(=O)NC)nc3)cc(-c3ccc(C)cn3)c2s1` [Compound A-42, 1-ethyl-3-[7-(5-methyl-2-pyridyl)-5-[2-(methylsulfamoylamino)pyrimidin-5-yl]-1,3-benzothiazol-2-yl]urea]: the MIC in the assay with S. aureus (ATCC 29213) was 0.06 µg/mL (≈ 0.12 µM); in assay [1], at most 0.008 µg/mL; in assay [2], 0.03 µg/mL (≈ 0.0602 µM); in the assay with E. faecalis (ATCC 29212) it was at most 0.008 µg/mL.
Regarding `CCNC(=O)Nc1nc2cc(-c3cnc(NS(=O)(=O)N4CCOCC4)nc3)cc(-c3ccc(C)cn3)c2s1` [Compound A-44, N-(5-(2-(3-ethylureido)-7-(5-methylpyridin-2-yl)benzo[d]thiazol-5-yl)pyrimidin-2-yl)morpholine-4-sulfonamide], the MIC in the assay on S. aureus (ATCC 29213) was 0.03 µg/mL (≈ 0.0541 µM); in assay [1], at most 0.008 µg/mL; in assay [2] it was 0.03 µg/mL (≈ 0.0541 µM); against E. faecalis (ATCC 29212), at most 0.008 µg/mL.
Take `CCNC(=O)Nc1nc2cc(-c3cnc(NS(=O)(=O)N4CCCC4)nc3)cc(-c3ccccn3)c2s1` [Compound A-45, N-(5-(2-(3-ethylureido)-7-(pyridin-2-yl)benzo[d]thiazol-5-yl)pyrimidin-2-yl)pyrrolidine-1-sulfonamide]: the MIC was 0.015 µg/mL (≈ 0.0286 µM) against S. aureus (ATCC 29213), at most 0.008 µg/mL in assay [1], 0.06 µg/mL (≈ 0.114 µM) in assay [2] and at most 0.008 µg/mL against E. faecalis (ATCC 29212).
Take `CCNC(=O)Nc1nc2cc(-c3cnc(NS(=O)(=O)C[C@@H](N)Cc4ccccc4)nc3)cc(-c3ccc(C)cn3)c2s1` [Compound A-46, (S)-2-amino-N-(5-(2-(3-ethylureido)-7-(5-methylpyridin-2-yl)benzo[d]thiazol-5-yl)pyrimidin-2-yl)-3-phenylpropane-1-sulfonamide]: the MIC amounted to 1 µg/mL (≈ 1.66 µM) in the assay on S. aureus (ATCC 29213), 0.06 µg/mL (≈ 0.0995 µM) in assay [1], 2 µg/mL (≈ 3.32 µM) in assay [2] and 0.25 µg/mL (≈ 0.415 µM) against E. faecalis (ATCC 29212).
For `CCNC(=O)Nc1nc2cc(-c3cnc(NS(=O)(=O)CC)nc3)cc(-c3ccc(C)cn3)c2s1` [Compound A-47, N-(5-(2-(3-ethylureido)-7-(5-methylpyridin-2-yl)benzo[d]thiazol-5-yl)pyrimidin-2-yl)ethanesulfonamide], in that order: 0.015 µg/mL (≈ 0.0301 µM), at most 0.008 µg/mL, at most 0.008 µg/mL and at most 0.008 µg/mL.
`CCNC(=O)Nc1nc2cc(-c3cnc(NS(=O)(=O)C(C)C)nc3)cc(-c3ccc(C)cn3)c2s1` [Compound A-48, N-(5-(2-(3-ethylureido)-7-(5-methylpyridin-2-yl)benzo[d]thiazol-5-yl)pyrimidin-2-yl)propane-2-sulfonamide]: the MIC against S. aureus (ATCC 29213) is 0.015 µg/mL (≈ 0.0293 µM); in assay [1], at most 0.008 µg/mL; in assay [2] it was 0.03 µg/mL (≈ 0.0586 µM); with E. faecalis (ATCC 29212), at most 0.008 µg/mL.
For the molecule `CCNC(=O)Nc1nc2cc(-c3cnc(NS(=O)(=O)N4CC(OC)C4)nc3)cc(-c3ccccn3)c2s1` [Compound A-49, N-(5-(2-(3-ethylureido)-7-(pyridin-2-yl)benzo[d]thiazol-5-yl)pyrimidin-2-yl)-3-methoxyazetidine-1-sulfonamide], the MIC worked out at 1 µg/mL (≈ 1.85 µM) in the assay with S. aureus (ATCC 29213), 0.25 µg/mL (≈ 0.462 µM) in assay [1], 2 µg/mL (≈ 3.7 µM) in assay [2] and 0.25 µg/mL (≈ 0.462 µM) in the assay with E. faecalis (ATCC 29212).
Take `CCNC(=O)Nc1nc2cc(-c3cnc(NS(=O)(=O)N4CC(OC)C4)nc3)cc(-c3ccc(C)cn3)c2s1` [Compound A-50, N-(5-(2-(3-ethylureido)-7-(5-methylpyridin-2-yl)benzo[d]thiazol-5-yl)pyrimidin-2-yl)-3-methoxyazetidine-1-sulfonamide]: the MIC against S. aureus (ATCC 29213) came out at 0.5 µg/mL (≈ 0.901 µM); in assay [1], 0.25 µg/mL (≈ 0.451 µM); in assay [2] it was 4 µg/mL (≈ 7.21 µM); with E. faecalis (ATCC 29212), 0.03 µg/mL (≈ 0.0541 µM).
For `CCNC(=O)Nc1nc2cc(-c3cnc(NS(=O)(=O)c4ccccc4)nc3)cc(-c3ccc(C)cn3)c2s1` [Compound A-51, N-(5-(2-(3-ethylureido)-7-(5-methylpyridin-2-yl)benzo[d]thiazol-5-yl)pyrimidin-2-yl)benzenesulfonamide], in that order: 0.015 µg/mL (≈ 0.0275 µM), at most 0.008 µg/mL, 0.015 µg/mL (≈ 0.0275 µM) and 0.008 µg/mL (≈ 0.0147 µM).
With `CCNC(=O)Nc1nc2cc(-c3cnc(NS(=O)(=O)CCN4CCOCC4)nc3)cc(-c3ccc(C)cn3)c2s1` [Compound A-52, N-(5-(2-(3-ethylureido)-7-(5-methylpyridin-2-yl)benzo[d]thiazol-5-yl)pyrimidin-2-yl)-2-morpholinoethanesulfonamide], the MIC is 0.5 µg/mL (≈ 0.858 µM) with S. aureus (ATCC 29213), 0.03 µg/mL (≈ 0.0515 µM) in assay [1], 0.12 µg/mL (≈ 0.206 µM) in assay [2] and 0.12 µg/mL (≈ 0.206 µM) against E. faecalis (ATCC 29212).
In the case of `CCNC(=O)Nc1nc2cc(-c3cnc(NS(=O)(=O)C4CCNC4)nc3)cc(-c3ccc(C)cn3)c2s1` (stereo not shown) [Compound A-53, N-(5-(2-(3-ethylureido)-7-(5-methylpyridin-2-yl)benzo[d]thiazol-5-yl)pyrimidin-2-yl)pyrrolidine-3-sulfonamide], the MIC is above 64 µg/mL in the assay on S. aureus (ATCC 29213), 2 µg/mL (≈ 3.71 µM) in assay [1], above 64 µg/mL in assay [2] and 0.5 µg/mL (≈ 0.928 µM) against E. faecalis (ATCC 29212).
Take `CCNC(=O)Nc1nc2cc(-c3cnc(NS(=O)(=O)N4CCC(O)C4)nc3)cc(-c3ccc(C)cn3)c2s1` (stereo not shown) [Compound A-54, N-(5-(2-(3-ethylureido)-7-(5-methylpyridin-2-yl)benzo[d]thiazol-5-yl)pyrimidin-2-yl)-3-hydroxypyrrolidine-1-sulfonamide]: the MIC was 0.12 µg/mL (≈ 0.216 µM) in the assay on S. aureus (ATCC 29213), at most 0.008 µg/mL in assay [1], 0.03 µg/mL (≈ 0.0541 µM) in assay [2] and at most 0.008 µg/mL with E. faecalis (ATCC 29212).
Take `CCNC(=O)Nc1nc2cc(-c3cnc(NS(=O)(=O)C4(CO)CC4)nc3)cc(-c3ccc(C)cn3)c2s1` [Compound A-55, N-(5-(2-(3-ethylureido)-7-(5-methylpyridin-2-yl)benzo[d]thiazol-5-yl)pyrimidin-2-yl)-1-(hydroxymethyl)cyclopropane-1-sulfonamide]: the MIC against S. aureus (ATCC 29213) is 0.12 µg/mL (≈ 0.222 µM); in assay [1], at most 0.008 µg/mL; in assay [2], 0.03 µg/mL (≈ 0.0556 µM); with E. faecalis (ATCC 29212), at most 0.008 µg/mL.
`CCNC(=O)Nc1nc2cc(-c3cnc(NS(=O)(=O)N4CC[C@@H](N5CCOCC5)C4)nc3)cc(-c3ccc(C)cn3)c2s1` [Compound A-56, (R)—N-(5-(2-(3-ethylureido)-7-(5-methylpyridin-2-yl)benzo[d]thiazol-5-yl)pyrimidin-2-yl)-3-morpholinopyrrolidine-1-sulfonamide]: the MIC was found to be 0.06 µg/mL (≈ 0.0962 µM) against S. aureus (ATCC 29213), 0.06 µg/mL (≈ 0.0962 µM) in assay [1], 0.12 µg/mL (≈ 0.192 µM) in assay [2] and 0.015 µg/mL (≈ 0.024 µM) against E. faecalis (ATCC 29212).
